Source: US20160002250A1, “POLYMORPHS AND SALTS OF A COMPOUND” (FORUM Pharmaceuticals Inc., priority 2013, published 2016)
Values after ≈ are worked out from the molar mass of the structure shown. “Also recorded” adds a separate entry of the source. Marks after values point to notes of the source that are not given here.

Columns and labels:
[1] = Thermodynamic aqueous solubility; details: for Thermodynamic solubility: 25° C.; for solubility thermodynamic at 24 h: 25 °C, thermodynamic from solid
Description: The suspension was equilibrated at 25° C. for 24 hours then the pH was measured and adjusted with either HCl or NaOH if it deviated by more than 0.3 units from the target pH. The suspension was then filtered through a glass fiber C filter. […] Different volumes of the standard, diluted and undiluted sample solutions were injected.
Analysis was performed on an Agilent HP1100 series system equipped with a diode array detector and using ChemStation software. The following buffers were prepared to carry out the solubility analyses:
pH 1.2—made up by adding 85.0 mL of 0.2M HCl(aq) to 50 mL of 0.2M KCl(aq) and making up to 200 mL. pH 4.5—made up by adding 2.99 g of NaC2H3O2.3H2O to 14.0 mL of 2N AcOH(aq) and making up to 1000 mL. pH 7.4—made up adding 39.1 mL of 0.2M NaOH(aq) to 50.0 mL of a 0.2M KH2PO4 and making up to 200 mL.

[2] = Solubility in solvents, slow cooling and evaporation experiments; assay type: physicochemical; details: 50° C.
Description: 4-(4-(imidazo[1,2-b]pyridazin-2-ylmethoxy)phenyl)-2,2-dimethyl-5-(pyridin-4-yl)furan-3(2H)-one (Form 2 or Form 1; ca. 10 mg per experiment) was weighed into vials, and the stated solvents were added, in increasing portions at 50° C. With each addition, the vials were allowed to shake for ˜20 minutes. Any solutions observed were allowed to cool to room temperature. Those experiments that remained as solutions were pin-holed to allow the solvent to slowly evaporate. Any suspensions observed were subjected to heat/cool cycles, between room temperature and 50° C., four hours at each condition.

[3] = Storage at elevated humidity; assay type: physicochemical; details: for Change in XRPD pattern on storage: seven days
Description: Samples were place on a glass slide and sealed in an airtight plastic container, along with an open beaker of saturated aqueous salt solution, and stored at a known regulated temperature. A saturated solution of NaCl was used to obtain a relative humidity of 75% at 40° C., whilst a saturated solution of potassium nitrate was used to provide 92% RH at 25° C.

[4] = Six-week stability study (elevated humidity, 60° C., room conditions); assay type: physicochemical; details: for Stability to elevated humidity and air oxidation: 60° C. and ambient conditions, XRPD, HPLC, 1H-NMR; for Stability to humidity: elevated humidity and temperature conditions
Description: The stability to elevated humidity and air oxidation was investigated for both Form 1 and Form 2 of the Free Base. Samples of both materials were stored at 40° C./75% RH, 25° C./96% RH, 60° C. in contact with air and ambient conditions (25° C. in contact with air) for six weeks, and analyses by XRPD, HPLC and ^1H-NMR (for oxidation study samples only) were carried out weekly.

[5] = Gravimetric Vapour Sorption (GVS); assay type: physicochemical; details: for Form change by XRPD during GVS: RH 0% to 90%; for GVS water uptake (% of mass): RH from 0% to 90%, 25° C.
Description: Sorption isotherms were obtained using a SMS DVS Intrinsic moisture sorption analyzer, controlled by DVS Intrinsic Control software v1.0.0.30. The sample temperature was maintained at 25° C. by the instrument controls. The humidity was controlled by mixing streams of dry and wet nitrogen, with a total flow rate of 200 ml/min. The relative humidity was measured by a calibrated Rotronic probe (dynamic range of 1.0-100% RH), located near the sample. The weight change, (mass relaxation) of the sample as a function of % RH was constantly monitored by the microbalance (accuracy ±0.005 mg).
Typically 5-30 mg of sample was placed in a tared mesh stainless steel basket under ambient conditions. The sample was loaded and unloaded at 40% relative humidity (RH) and 25° C. (typical room conditions). A moisture sorption isotherm was performed as outlined below in Table 4 (2 scans giving 1 complete cycle). The standard isotherm was performed at 25° C. at 10% RH intervals over a 0-90% RH range. Data analysis was undertaken in Microsoft Excel using DVS Analysis Suite. The sample was recovered after completion of the isotherm and re-analyzed by XRPD.

[6] = Stability of amorphous material at room and elevated humidity conditions; assay type: physicochemical
Description: A DSC experiment was performed to assess the possibility of preparing amorphous material by melting and quench cooling. A sample of Form 1 (˜1 mg) was heated to 200° C. until it melted, then quickly cooled down to −80° C. and re-heated at 10° C./min. […] The crystalline Form 1 then melted at 184° C.
The experiment was repeated on a larger scale (batches of ˜60 mg) on the TGA instrument, and the resulting glasses were used as input materials for maturation experiments. Samples were also stored at elevated humidity conditions for re-analysis by XRPD after 24 h.

[7] = 25° C./96% RH, Week 5, samples run after 24 hours in solution
[8] = 40° C./75% RH, 25° C./96% RH, six weeks
[9] = 40° C./75% RH, Week 5, samples run after 24 hours in solution
[10] = 60° C., Week 5, samples run after 24 hours in solution
[11] = Room conditions, Week 5, samples run after 24 hours in solution

CC1(C)OC(c2ccncc2)=C(c2ccc(OCc3cn4ncccc4n3)cc2)C1=O [Form 1, 4-(4-(imidazo[1,2-b]pyridazin-2-ylmethoxy)phenyl)-2,2-dimethyl-5-(pyridin-4-yl)furan-3(2H)-one]
pH of saturated unfiltered solution ([1]; DI water): 7.67
Thermodynamic solubility ([1]; DI water, 24 hours): 60 µg/mL
solubility thermodynamic at 24 h ([1]; deionized water, water, thermodynamic aqueous solubility, at pH 7.67 (Form 1), pH 7.23 (Form 2)): ~60 µg/mL (≈ 145 µM)
pH of saturated unfiltered solution ([1]; pH 1.2 buffer): 1.40
Thermodynamic solubility ([1]; pH 1.2 buffer, 24 hours): 32000 µg/mL
pH of saturated unfiltered solution ([1]; pH 4.5 buffer): 4.67
Thermodynamic solubility ([1]; pH 4.5 buffer, 24 hours): 60 µg/mL
pH of saturated unfiltered solution ([1]; pH 7.4 buffer): 7.46
solubility thermodynamic at 24 h ([1]; pH 7.4 buffer, pH 7.4, aqueous buffer, Thermodynamic solubility, 24 hours): 50 µg/mL (≈ 121 µM)
Solubility (volumes) ([2]; MeCN/H2O, 20 volumes): Almost
Change in XRPD pattern on storage ([3]; 25° C./92% RH): no significant change in the XRPD pattern
Change in XRPD pattern on storage ([3]; 40° C./75% RH): no significant change in the XRPD pattern
Purity (area %) ([4]; 25° C./96% RH, Week 1): 96.6 area %
Purity (area %) ([4]; 25° C./96% RH, Week 2): 95.5 area %
Purity (area %) ([4]; 25° C./96% RH, Week 3): 96.5 area %
Purity (area %) ([4]; 25° C./96% RH, Week 4): 95.9 area %
Purity (area %) [4, 7]: 91.8* area %
Purity (area %) ([4]; 25° C./96% RH, Week 6): 95.5 area %
Stability to elevated humidity and air oxidation [4, 8]: No significant changes; also recorded: no significant degradation
Purity (area %) ([4]; 40° C./75% RH, Week 1): 96.9 area %
Purity (area %) ([4]; 40° C./75% RH, Week 2): 96.3 area %
Purity (area %) ([4]; 40° C./75% RH, Week 3): 96.5 area %
Purity (area %) ([4]; 40° C./75% RH, Week 4): 95.6 area %
Purity (area %) [4, 9]: 95.6* area %
Purity (area %) ([4]; 40° C./75% RH, Week 6): 96.8 area %
Changes after storage at 60° C. ([4]; 60° C., 4 weeks): no significant changes
Purity (area %) ([4]; 60° C., Week 1): 96.8 area %
Purity (area %) ([4]; 60° C., Week 2): 95.2 area %
Purity (area %) ([4]; 60° C., Week 3): 95.5 area %
Purity (area %) ([4]; 60° C., Week 4): 94.8 area %
Purity (area %) [4, 10]: 96.0* area %
Purity (area %) ([4]; 60° C., Week 6): 95.9 area %
Changes by 1H-NMR or HPLC after storage at 60° C. ([4]; 60° C., six weeks): no significant changes
Purity (area %) ([4]; Room conditions, Week 1): 96.5 area %
Purity (area %) ([4]; Room conditions, Week 2): 94.9 area %
Purity (area %) ([4]; Room conditions, Week 3): 96.6 area %
Purity (area %) ([4]; Room conditions, Week 4): 96.0 area %
Purity (area %) [4, 11]: 95.5* area %
Purity (area %) ([4]; Room conditions, Week 6): 95.9 area %
Stability to humidity ([4]; after 6 weeks): No changes observed at elevated
Form change by XRPD during GVS [5]: No form change
GVS water uptake (% of mass) [5]: 0.9%

CC1(C)OC(c2ccncc2)=C(c2ccc(OCc3cn4ncccc4n3)cc2)C1=O [Form 2, 4-(4-(imidazo[1,2-b]pyridazin-2-ylmethoxy)phenyl)-2,2-dimethyl-5-(pyridin-4-yl)furan-3(2H)-one]
pH of saturated unfiltered solution ([1]; DI water): 7.23
solubility thermodynamic at 24 h ([1]; deionized water, water, Thermodynamic solubility, DI water, 24 hours): 40 µg/mL (≈ 97 µM)
thermodynamic aqueous solubility ([1]; deionized water, at pH 7.67 (Form 1), pH 7.23 (Form 2)): about 0.04 mg/ml
pH of saturated unfiltered solution ([1]; pH 1.2 buffer): 1.73
solubility thermodynamic at 24 h ([1]; pH 1.2 buffer, pH 1.2, simulated gastric fluid, Thermodynamic solubility, 24 hours): 37800 µg/mL (≈ 91600 µM)
pH of saturated unfiltered solution ([1]; pH 4.5 buffer): 4.65
solubility thermodynamic at 24 h ([1]; pH 4.5 buffer, pH 4.5, aqueous buffer, Thermodynamic solubility, 24 hours): 50 µg/mL (≈ 121 µM)
pH of saturated unfiltered solution ([1]; pH 7.4 buffer): 7.46
Thermodynamic solubility ([1]; pH 7.4 buffer, 24 hours): 40 µg/mL
Solubility (volumes) ([2]; BuOAc, 50 volumes): Almost
Solubility (volumes) ([2]; BuOAc, 100 volumes): Almost
Solubility (volumes) ([2]; Ethanol, 50 volumes): Almost
Solubility (volumes) ([2]; IPA, 50 volumes): Almost
Solubility (volumes) ([2]; IPA, 100 volumes): Almost
Solubility (volumes) ([2]; IPAc, 50 volumes): Almost
Solubility (volumes) ([2]; IPAc, 100 volumes): Almost
Solubility (volumes) ([2]; MEK, 20 volumes): Almost
Solubility (volumes) ([2]; MIBK, 50 volumes): Almost
Solubility (volumes) ([2]; MIBK, 100 volumes): Almost
Solubility (volumes) ([2]; MeCN/H2O, 10 volumes): Almost
Solubility (volumes) ([2]; Methanol, 10 volumes): Almost
Solubility (volumes) ([2]; Nitromethane, 10 volumes): Almost
Solubility (volumes) ([2]; Toluene, 50 volumes): Almost
Purity (area %) ([4]; 25° C./96% RH, Week 1): 99.3 area %
Purity (area %) ([4]; 25° C./96% RH, Week 2): 98.9 area %
Purity (area %) ([4]; 25° C./96% RH, Week 3): 98.9 area %
Purity (area %) ([4]; 25° C./96% RH, Week 4): 98.9 area %
Purity (area %) [4, 7]: 98.0* area %
Purity (area %) ([4]; 25° C./96% RH, Week 6): 98.9 area %
Stability to elevated humidity and air oxidation [4, 8]: No significant changes; also recorded: no significant degradation
Purity (area %) ([4]; 40° C./75% RH, Week 1): 99.5 area %
Purity (area %) ([4]; 40° C./75% RH, Week 2): 99.1 area %
Purity (area %) ([4]; 40° C./75% RH, Week 3): 99.2 area %
Purity (area %) ([4]; 40° C./75% RH, Week 4): 99.1 area %
Purity (area %) [4, 9]: 98.8* area %
Purity (area %) ([4]; 40° C./75% RH, Week 6): 98.9 area %
Purity (area %) ([4]; 60° C., Week 1): 98.9 area %
Purity (area %) ([4]; 60° C., Week 2): 99.1 area %
1H-NMR ([4]; 60° C., Week 4): Very weak
Purity (area %) ([4]; 60° C., Week 4): 99.0 area %
Purity (area %) [4, 10]: 98.6* area %
Purity (area %) ([4]; 60° C., Week 6): 99.0 area %
Purity (area %) ([4]; Room conditions, Week 1): 99.2 area %
Purity (area %) ([4]; Room conditions, Week 2): 98.6 area %
Purity (area %) ([4]; Room conditions, Week 4): 98.6 area %
Purity (area %) [4, 11]: 98.2* area %
Purity (area %) ([4]; Room conditions, Week 6): 98.2 area %
Stability at 60° C. in contact with air ([4]; after 6 weeks, XRPD and HPLC): No significant changes by XRPD or HPLC analyses after
Stability at room conditions (25° C. in contact with air) ([4]; after 6 weeks, XRPD and HPLC): No significant changes by XRPD or HPLC analyses after
Stability at 25° C./96% RH ([4]; after 6 weeks, XRPD and purity): No significant changes by XRPD or purity after 6 weeks
Stability at 40° C./75% RH ([4]; after 6 weeks, XRPD and purity): No significant changes by XRPD or purity after 6 weeks
Stability to humidity ([4]; after 6 weeks): No changes observed at elevated

CC1(C)OC(c2ccncc2)=C(c2ccc(OCc3cn4ncccc4n3)cc2)C1=O [amorphous material, 4-(4-(imidazo[1,2-b]pyridazin-2-ylmethoxy)phenyl)-2,2-dimethyl-5-(pyridin-4-yl)furan-3(2H)-one]
Form by XRPD after storage at elevated humidity ([6]; elevated humidity conditions, 24 h): All solids displayed Form 1
Form on standing at room conditions ([6]; typically 25° C., 40% RH): converted to Form 1

CC1(C)OC(c2ccncc2)=C(c2ccc(OCc3cn4ncccc4n3)cc2)C1=O.Cc1ccc(S(=O)(=O)O)cc1.Cc1ccc(S(=O)(=O)O)cc1 [bis-tosylate]
Solubility (mg mL free form equivalent) ([1]; pH point 1.2): 32.29 mg mL free form equivalent
pH of unfiltered saturated solution ([1]; pH point 1.2): 1.21
Solubility (mg mL free form equivalent) ([1]; pH point 4.5): 0.05 mg mL free form equivalent
pH of unfiltered saturated solution ([1]; pH point 4.5): 4.52
Solubility (mg mL free form equivalent) ([1]; pH point 7.4): 0.05 mg mL free form equivalent
pH of unfiltered saturated solution ([1]; pH point 7.4): 7.40
Solubility (mg mL free form equivalent) ([1]; pH point unadjusted aqueous): 29.07 mg mL free form equivalent
pH of unfiltered saturated solution ([1]; pH point unadjusted aqueous): 2.00
Form change on storage ([3]; 40° C./75% RH, one week): no form change
Form change by XRPD during GVS [5]: no accompanying form change
GVS water uptake (% of mass) [5]: 3.1%
